Data from ChEMBL document CHEMBL1201862, “PubChem BioAssay data set” (2004).
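Results reflect a 48-hour exposure of cells in 96-well plates to compound at five concentrations. GI50: concentration for 50% inhibition of growth.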 The source made the active and inactive calls. No stated cut-off is given here; in the data, active = GI50 up to about 1.1 µM and inactive = higher.

How the values were obtained:
Test in all cases: NCI tumour cell line growth inhibition, 48 h
KM12 = system: KM12
SF-295 = system: SF-295
NCI/ADR-RES = system: NCI/ADR-RES
MCF7 = system: MCF7
EKVX = system: EKVX
IGROV-1 = system: IGROV-1
786-0 = system: 786-0
SNB-19 = system: SNB-19
UO-31 = system: UO-31
SF-539 = system: SF-539
RXF 393 = system: RXF 393
HCC 2998 = system: HCC 2998
ACHN = system: ACHN
OVCAR-8 = system: OVCAR-8
SK-MEL-2 = system: SK-MEL-2
HOP-62 = system: HOP-62
MDA-N = system: MDA-N
SR = system: SR
M14 = system: M14
OVCAR-4 = system: OVCAR-4
SK-MEL-28 = system: SK-MEL-28
OVCAR-5 = system: OVCAR-5
HCT-116 = system: HCT-116
TK-10 = system: TK-10
COLO 205 = system: COLO 205
SNB-75 = system: SNB-75
OVCAR-3 = system: OVCAR-3
A498 = system: A498
HL-60 = system: HL-60
BT-549 = system: BT-549
DU-145 = system: DU-145
SN12C = system: SN12C
Hs-578T = system: Hs-578T
UACC-257 = system: UACC-257
UACC-62 = system: UACC-62
T47D = system: T47D
U-251 = system: U-251
K562 = system: K562
NCI-H522 = system: NCI-H522
NCI-H23 = system: NCI-H23
A549 = system: A549
SK-MEL-5 = system: SK-MEL-5
CCRF-CEM = system: CCRF-CEM
MOLT-4 = system: MOLT-4
LOX IMVI = system: LOX IMVI
NCI-H460 = system: NCI-H460
SW-620 = system: SW-620
CAKI-1 = system: CAKI-1
HOP-92 = system: HOP-92
HCT-15 = system: HCT-15
MDA-MB-231 = system: MDA-MB-231
SF-268 = system: SF-268
HT-29 = system: HT-29
PC-3 = system: PC-3
MDA-MB-435 = system: MDA-MB-435
RPMI-8226 = system: RPMI-8226
SK-OV-3 = system: SK-OV-3
Malme-3M = system: Malme-3M
NCI-H226 = system: NCI-H226

CC1CCN(c2nnc(Cl)cc2C(=O)c2ccccc2)CC1
GI50 (KM12): 18 µM (inactive)
GI50 (SF-295): 24.7 µM (inactive)
GI50 (NCI/ADR-RES): 36.6 µM (inactive)
GI50 (MCF7): 19.4 µM (inactive)
GI50 (EKVX): 29.8 µM (inactive)
GI50 (IGROV-1): 35.3 µM (inactive)
GI50 (786-0): 41.7 µM (inactive)
GI50 (SNB-19): 26.9 µM (inactive)
GI50 (UO-31): 23.1 µM (inactive)
GI50 (SF-539): 25.4 µM (inactive)
GI50 (RXF 393): 16.9 µM (inactive)
GI50 (HCC 2998): 30.5 µM (inactive)
GI50 (ACHN): 49.9 µM (inactive)
GI50 (OVCAR-8): 58.7 µM (inactive)
GI50 (SK-MEL-2): 18.5 µM (inactive)
GI50 (HOP-62): 28.4 µM (inactive)
GI50 (MDA-N): 21.7 µM (inactive)
GI50 (SR): 17.5 µM (inactive)
GI50 (M14): 27 µM (inactive)
GI50 (OVCAR-4): 29.2 µM (inactive)
GI50 (SK-MEL-28): 39.3 µM (inactive)
GI50 (OVCAR-5): 77.4 µM (inactive)
GI50 (HCT-116): 29.6 µM (inactive)
GI50 (TK-10): 37.6 µM (inactive)
GI50 (COLO 205): 21.9 µM (inactive)
GI50 (SNB-75): 27.5 µM (inactive)
GI50 (OVCAR-3): 22.4 µM (inactive)
GI50 (A498): 35.7 µM (inactive)
GI50 (HL-60): 44.4 µM (inactive)
GI50 (BT-549): 30.3 µM (inactive)
GI50 (DU-145): 38.3 µM (inactive)
GI50 (SN12C): 50.7 µM (inactive)
GI50 (Hs-578T): 20 µM (inactive)
GI50 (UACC-257): 18.7 µM (inactive)
GI50 (UACC-62): 26.8 µM (inactive)
GI50 (T47D): 31.5 µM (inactive)
GI50 (U-251): 31.1 µM (inactive)
GI50 (K562): 53 µM (inactive)
GI50 (NCI-H522): 26.7 µM (inactive)
GI50 (NCI-H23): 25.5 µM (inactive)
GI50 (A549): 32.1 µM (inactive)
GI50 (SK-MEL-5): 16.6 µM (inactive)
GI50 (CCRF-CEM): 13.5 µM (inactive)
GI50 (MOLT-4): 20.7 µM (inactive)
GI50 (LOX IMVI): 29.4 µM (inactive)
GI50 (NCI-H460): 29.5 µM (inactive)
GI50 (SW-620): 22.1 µM (inactive)
GI50 (CAKI-1): 17.9 µM (inactive)
GI50 (HOP-92): 16 µM (inactive)
GI50 (HCT-15): 35.6 µM
GI50 (MDA-MB-231): 27.5 µM (inactive)
GI50 (SF-268): 1.67 µM (inactive)
GI50 (HT-29): 17.7 µM (inactive)
GI50 (PC-3): 20.4 µM (inactive)
GI50 (MDA-MB-435): 21.5 µM (inactive)

N=C(N)NC1C(O)C(O)C(O)C(NC(=N)N)C1O (stereo not given)
GI50 (KM12): > 100 µM (inactive)
GI50 (SF-295): > 100 µM (inactive)
GI50 (NCI/ADR-RES): > 100 µM (inactive)
GI50 (MCF7): > 100 µM (inactive)
GI50 (EKVX): > 100 µM (inactive)
GI50 (IGROV-1): > 100 µM (inactive)
GI50 (786-0): > 100 µM (inactive)
GI50 (SNB-19): > 100 µM (inactive)
GI50 (UO-31): > 100 µM (inactive)
GI50 (SF-539): > 100 µM (inactive)
GI50 (RXF 393): > 100 µM (inactive)
GI50 (HCC 2998): > 100 µM (inactive)
GI50 (ACHN): > 100 µM (inactive)
GI50 (OVCAR-8): > 100 µM (inactive)
GI50 (SK-MEL-2): > 100 µM (inactive)
GI50 (HOP-62): > 100 µM (inactive)
GI50 (MDA-N): > 100 µM (inactive)
GI50 (SR): > 100 µM (inactive)
GI50 (M14): > 100 µM (inactive)
GI50 (OVCAR-4): > 100 µM (inactive)
GI50 (SK-MEL-28): > 100 µM (inactive)
GI50 (OVCAR-5): > 100 µM (inactive)
GI50 (HCT-116): > 100 µM (inactive)
GI50 (TK-10): > 100 µM (inactive)
GI50 (COLO 205): > 100 µM (inactive)
GI50 (RPMI-8226): > 100 µM (inactive)
GI50 (SNB-75): > 100 µM (inactive)
GI50 (OVCAR-3): > 100 µM (inactive)
GI50 (A498): > 100 µM (inactive)
GI50 (HL-60): > 100 µM (inactive)
GI50 (BT-549): > 100 µM (inactive)
GI50 (DU-145): > 100 µM (inactive)
GI50 (SN12C): > 100 µM (inactive)
GI50 (Hs-578T): > 100 µM (inactive)
GI50 (UACC-257): > 100 µM (inactive)
GI50 (UACC-62): > 100 µM (inactive)
GI50 (T47D): > 100 µM (inactive)
GI50 (U-251): > 100 µM (inactive)
GI50 (K562): > 100 µM (inactive)
GI50 (NCI-H522): > 100 µM (inactive)
GI50 (NCI-H23): > 100 µM (inactive)
GI50 (A549): > 100 µM (inactive)
GI50 (SK-MEL-5): > 100 µM (inactive)
GI50 (CCRF-CEM): > 100 µM (inactive)
GI50 (MOLT-4): > 100 µM (inactive)
GI50 (LOX IMVI): > 100 µM (inactive)
GI50 (SK-OV-3): > 100 µM (inactive)
GI50 (NCI-H460): > 100 µM (inactive)
GI50 (Malme-3M): > 100 µM (inactive)
GI50 (SW-620): > 100 µM (inactive)
GI50 (CAKI-1): > 100 µM (inactive)
GI50 (HOP-92): > 100 µM (inactive)
GI50 (HCT-15): > 100 µM
GI50 (MDA-MB-231): > 100 µM (inactive)
GI50 (SF-268): > 100 µM (inactive)
GI50 (HT-29): > 100 µM (inactive)
GI50 (PC-3): > 100 µM (inactive)
GI50 (MDA-MB-435): > 100 µM (inactive)

CC(C)(C)c1cc(C(O)(C(=O)O)C(=O)O)cc(C(C)(C)C)c1O
GI50 (KM12): > 100 µM (inactive)
GI50 (SF-295): > 100 µM (inactive)
GI50 (NCI/ADR-RES): > 100 µM (inactive)
GI50 (MCF7): > 100 µM (inactive)
GI50 (EKVX): > 100 µM (inactive)
GI50 (IGROV-1): > 100 µM (inactive)
GI50 (786-0): > 100 µM (inactive)
GI50 (SNB-19): > 100 µM (inactive)
GI50 (UO-31): > 100 µM (inactive)
GI50 (SF-539): > 100 µM (inactive)
GI50 (RXF 393): > 100 µM (inactive)
GI50 (ACHN): > 100 µM (inactive)
GI50 (OVCAR-8): > 100 µM (inactive)
GI50 (SK-MEL-2): > 100 µM (inactive)
GI50 (HOP-62): > 100 µM (inactive)
GI50 (MDA-N): > 100 µM (inactive)
GI50 (SR): > 100 µM (inactive)
GI50 (M14): > 100 µM (inactive)
GI50 (OVCAR-4): > 100 µM (inactive)
GI50 (SK-MEL-28): > 100 µM (inactive)
GI50 (OVCAR-5): > 100 µM (inactive)
GI50 (HCT-116): > 100 µM (inactive)
GI50 (TK-10): > 100 µM (inactive)
GI50 (COLO 205): > 100 µM (inactive)
GI50 (RPMI-8226): > 100 µM (inactive)
GI50 (SNB-75): > 100 µM (inactive)
GI50 (OVCAR-3): > 100 µM (inactive)
GI50 (A498): > 100 µM (inactive)
GI50 (HL-60): > 100 µM (inactive)
GI50 (BT-549): > 100 µM (inactive)
GI50 (NCI-H226): > 100 µM (inactive)
GI50 (DU-145): > 100 µM (inactive)
GI50 (SN12C): > 100 µM (inactive)
GI50 (Hs-578T): > 100 µM (inactive)
GI50 (UACC-257): > 100 µM (inactive)
GI50 (UACC-62): > 100 µM (inactive)
GI50 (T47D): > 100 µM (inactive)
GI50 (U-251): > 100 µM (inactive)
GI50 (K562): > 100 µM (inactive)
GI50 (NCI-H522): > 100 µM (inactive)
GI50 (NCI-H23): > 100 µM (inactive)
GI50 (A549): > 100 µM (inactive)
GI50 (SK-MEL-5): > 100 µM (inactive)
GI50 (CCRF-CEM): > 100 µM (inactive)
GI50 (MOLT-4): > 100 µM (inactive)
GI50 (LOX IMVI): > 100 µM (inactive)
GI50 (SK-OV-3): > 100 µM (inactive)
GI50 (Malme-3M): > 100 µM (inactive)
GI50 (SW-620): > 100 µM (inactive)
GI50 (CAKI-1): > 100 µM (inactive)
GI50 (HOP-92): > 100 µM (inactive)
GI50 (HCT-15): > 100 µM
GI50 (MDA-MB-231): > 100 µM (inactive)
GI50 (SF-268): > 100 µM (inactive)
GI50 (HT-29): > 100 µM (inactive)
GI50 (PC-3): > 100 µM (inactive)
GI50 (MDA-MB-435): > 100 µM (inactive)
